Measured values: patent publication US20240400579A1, “SPIROCYCLIC MODULATORS OF CHOLESTEROL BIOSYNTHESIS AND THEIR USE FOR PROMOTING REMYELINATION” (GENENTECH, INC., priority 2021, published 2024)

What was measured:
[1] = biological target: human emopamil binding protein and human 7-dehydrocholesterol reductase co-expressing cell membrane (Homo sapiens (Human), UniProt Q15125); assay: hEBP-DHCR7 radioligand filtration binding assay with [3H]-Compound 118A*; conditions: radioligand [3H]-Compound 118A*; HEK293 membrane co-expressing hEBP and DHCR7
Chain of human emopamil binding protein and human 7-dehydrocholesterol reductase co-expressing cell membrane (Q15125 whole entry): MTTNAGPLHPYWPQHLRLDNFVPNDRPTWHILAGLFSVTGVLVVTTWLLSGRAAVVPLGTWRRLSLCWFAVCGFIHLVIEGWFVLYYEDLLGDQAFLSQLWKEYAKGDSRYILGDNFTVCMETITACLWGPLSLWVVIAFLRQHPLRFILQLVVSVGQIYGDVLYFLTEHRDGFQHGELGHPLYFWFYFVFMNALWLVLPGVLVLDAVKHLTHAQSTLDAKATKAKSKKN
Method in brief: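 HEK293 membranes transiently co-expressing hEBP and hDHCR7 (10 μg/well) were incubated with [3H]-Compound 118A* (added at 25 nM) and compounds (8 doses, final 0.06–5000 nM, n=2) for 3 h at 22 °C. Bound radioactivity was read after PEI-treated GF/B filtration. IC50 came from a Hill fit of % inhibition and was converted to Ki.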

[2] = system: EpiSC-derived OPCs; assay: In vitro phenotypic screening of OPCs, MBP high-content imaging; assay type: cell-based, mouse; conditions: Mus musculus, 72 h, percentage of MBP+ oligodendrocytes; 3 days; 0.5 nM to 1000 nM; read-out: mOPC EC50
Method in brief: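 Mouse EpiSC-derived OPCs seeded without growth factors and exposed 3 days at 37° C. to 8-point doses, 1000 nM to 0.5 nM final. Fixed cells stained for MBP and DAPI; high-content imaging gave percentage MBP+ oligodendrocytes, with EC50 from Hill-equation fit.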

[3] = system: zymostenol accumulation in EpiSC-derived OPCs (EBP); assay: GC/MS-based sterol profiling, zymostenol accumulation; assay type: cell-based, mouse; conditions: Mus musculus, 24 h, 8 doses from 0.15 nM to 333 nM, read-out: mZymo GCMS EC50
Method in brief: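 EpiSC-derived mouse OPCs plated at 100,000 cells/well in N2B27 without growth factors and treated 24 h. Sterols extracted, silylated with BSTFA and measured by GC/MS (EI, full scan), quantified against cholesterol-d7. Zymostenol normalized to levels after 24 h with 100 nM positive control reference.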

SMILES	Ki [1]	EC50 [2]	EC50 [3]
CCC(C)(C)c1ccc(CC(C)CN2CCC3(C2)CS(=O)(=O)C3)cc1 (racemic) [Compound 107, 6-(2-Methyl-3-(4-(tert-pentyl)phenyl)propyl)-2-thia-6-azaspiro[3.4]octane 2,2-dioxide]	10.3 nM	22 nM	9.5 nM
CC(Cc1ccc(C2CCC2)cc1)CN1CCC2(C1)CS(=O)(=O)C2 (racemic) [Compound 109A, 6-(3-(4-cyclobutylphenyl)-2-methylpropyl)-2-thia-6-azaspiro[3.4]octane 2,2-dioxide]	12.5 nM	1.8 nM	1.6 nM
COC(Cc1ccc(C(F)(F)F)cc1)CN1CCC2(C1)CS(=O)(=O)C2 (racemic) [Example 143, (S)-6-(2-Methoxy-3-(4-(trifluoromethyl)phenyl)propyl)-2-thia-6-azaspiro[3.4]octane 2,2-dioxide and (R)-6-(2-methoxy-3-(4-(trifluoromethyl)phenyl)propyl)-2-thia-6-azaspiro[3.4]octane 2,2-dioxide]	12.6 nM	26 nM	2.8 nM
C[C@@H](Cc1ccc(C(F)(F)F)cc1)CN1CCC2(C1)CS(=O)(=O)C2 (single isomer, unassigned) [114A*]	18.3 nM	2.4 nM	0.37 nM
C[C@H](Cc1ccc(C(F)(F)F)cc1)CN1CCC2(C1)CS(=O)(=O)C2 (single isomer, unassigned) [114B*]	5.85 nM	0.72 nM	0.82 nM
C[C@@H](Cc1ccc(C(F)(F)F)nc1)CN1CCC2(C1)CS(=O)(=O)C2 (single isomer, unassigned) [118A*]	22.1 nM	8.5 nM	2.4 nM
C[C@@H](Cc1cnc(C(F)(F)F)nc1)CN1CCC2(CC1)CS(=O)(=O)C2 (single isomer, unassigned) [215A*]	105 nM	23 nM	13 nM
C[C@H](Cc1cnc(C(F)(F)F)nc1)CN1CCC2(CC1)CS(=O)(=O)C2 (single isomer, unassigned) [215B*]	136 nM	51 nM	17 nM
C[C@@H](CN1CCC2(CC1)CS(=O)(=O)C2)Oc1ccc(F)c(F)c1 (single isomer, unassigned) [221A*]	25.5 nM	4.9 nM	1.6 nM
O=S1(=O)CC2(CCN(CC[C@H](F)c3ccc(C(F)(F)F)cc3)C2)C1 (single isomer, unassigned) [Compound 122B]	13.7 nM	2.1 nM	1.2 nM
C[C@@H](Cc1ccnc(C(F)(F)F)c1)CN1CCC2(C1)CS(=O)(=O)C2 (single isomer, unassigned) [Compound 126A]	47.4 nM	10 nM	3.8 nM
C[C@H](Cc1ccnc(C(F)(F)F)c1)CN1CCC2(C1)CS(=O)(=O)C2 (single isomer, unassigned) [Compound 126B]	67.6 nM	230 nM	14 nM
C[C@@H](Cc1ccc(C(F)F)cc1)CN1CCC2(C1)CS(=O)(=O)C2 (single isomer, unassigned) [Compound 128A]	29.6 nM	370 nM	23 nM
CC(C)(CN1CC[C@@]2(CCS(=O)(=O)C2)C1)Oc1ccc(C(F)(F)F)cc1 (single isomer, unassigned) [Compound 141A]	25.6 nM	21 nM	5.5 nM
CC(C)(CN1CC[C@]2(CCS(=O)(=O)C2)C1)Oc1ccc(C(F)(F)F)cc1 (single isomer, unassigned) [Compound 141B]	58.4 nM	480 nM	49 nM
C[C@@H](Cc1cnc(C(F)(F)F)nc1)CN1CCC2(C1)CS(=O)(=O)C2 (single isomer, unassigned) [Compound 145A]	69.1 nM	69 nM	8.1 nM
CC(C)(Cc1ccc(C(F)(F)F)nc1)CN1CC[C@@]2(CCS(=O)(=O)C2)C1 (single isomer, unassigned) [Compound 148B]	28.6 nM	73 nM	7.2 nM
O=S1(=O)CC2(CCN(CCOc3ccc(C(F)(F)F)cc3)C2)C1 [Compound 112, 6-(2-(4-(Trifluoromethyl)phenoxy)ethyl)-2-thia-6-azaspiro[3.4]octane-2,2-dioxide]	13.5 nM	33 nM	1.3 nM
O=S1(=O)CC2(CCN(CCOc3ccc(C(F)(F)F)nc3)CC2)C1 [Compound 230, 7-(2-((6-(Trifluoromethyl)pyridin-3-yl)oxy)ethyl)-2-thia-7-azaspiro[3.5]nonane 2,2-dioxide]	749 nM	22 nM	11 nM
CC(C)(CN1CCC2(C1)CS(=O)(=O)C2)Oc1ccc(C2CCC2)cc1 [Example 129, 6-(2-(4-Cyclobutylphenoxy)-2-methylpropyl)-2-thia-6-azaspiro[3.4]octane-2,2-dioxide]	11.8 nM	190 nM	19 nM
CC(C)(CN1CCC2(C1)CS(=O)(=O)C2)Oc1cccc(C(F)(F)F)c1 [Example 130, 6-(2-Methyl-2-(3-(trifluoromethyl)phenoxy)propyl)-2-thia-6-azaspiro[3.4]octane-2,2-dioxide]	13.2 nM	10 nM	2.9 nM
CC(C)(CN1CCC2(C1)CS(=O)(=O)C2)Oc1cccc(OC(F)(F)F)c1 [Example 131, 6-(2-Methyl-2-(3-(trifluoromethoxy)phenoxy)propyl)-2-thia-6-azaspiro[3.4]octane 2,2-dioxide]	118 nM	7.8 nM	1.6 nM
CC(C)(CN1CCC2(C1)CS(=O)(=O)C2)Oc1ccc(C(F)(F)F)nc1 [Example 135, 6-(2-Methyl-2-((6-(trifluoromethyl)pyridin-3-yl)oxy)propyl)-2-thia-6-azaspiro[3.4]octane-2,2-dioxide]	39.6 nM	140 nM	32 nM
CC(C)(CN1CCC2(C1)CS(=O)(=O)C2)Oc1ccc(OC(F)(F)F)cc1 [Example 136, 6-(2-Methyl-2-(4-(trifluoromethoxy)phenoxy)propyl)-2-thia-6-azaspiro[3.4]octane 2,2-dioxide]	14.2 nM	12 nM	3.6 nM
CC(C)(CN1CCC2(CC1)CS(=O)(=O)C2)Oc1ccc(C(F)(F)F)cc1 [Example 138, 7-(2-Methyl-2-(4-(trifluoromethyl)phenoxy)propyl)-2-thia-7-azaspiro[3.5]nonane 2,2-dioxide]	5.04 nM	2.3 nM	1 nM
CC(C)(Cc1ccc(C2CCC(F)(F)CC2)c(Cl)c1)CN1CCC2(C1)CS(=O)(=O)C2 [Example 139, 6-(3-(3-Chloro-4-(4,4-difluorocyclohexyl)phenyl)-2,2-dimethylpropyl)-2-thia-6-azaspiro[3.4]octane 2,2-dioxide]	9.23 nM	0.46 nM	1.6 nM
CC(C)(Cc1ccc(C(F)(F)F)nc1)CN1CCC2(C1)CS(=O)(=O)C2 [Example 140, 6-(2,2-Dimethyl-3-(6-(trifluoromethyl)pyridin-3-yl)propyl)-2-thia-6-azaspiro[3.4]octane-2,2-dioxide]	19.9 nM	5 nM	2.1 nM
CC(C)(CN1CCC2(C1)CS(=O)(=O)C2)Oc1cnc(C(F)(F)F)nc1 [Example 144, 6-(2-Methyl-2-((2-(trifluoromethyl)pyrimidin-5-yl)oxy)propyl)-2-thia-6-azaspiro[3.4]octane-2,2-dioxide]	96.6 nM	390 nM	80 nM
O=S1(=O)CC2(CCN(CC3(Cc4ccc(C(F)(F)F)nc4)CC3)C2)C1 [Example 157, 6-((1-((6-(Trifluoromethyl)pyridin-3-yl)methyl)cyclopropyl)methyl)-2-thia-6-azaspiro[3.4]octane 2,2-dioxide]	17.2 nM	9.4 nM	12 nM
O=S1(=O)CCC2(CC1)CN(CCOc1ccc(C(F)(F)F)cc1)C2 [Example 201, 2-(2-(4-(Trifluoromethyl)phenoxy)ethyl)-7-thia-2-azaspiro[3.5]nonane 7,7-dioxide]	25.7 nM	5.5 nM	3.2 nM
